Test results published in patent US20150038707A1, “PROCESS FOR MAKING CGRP RECEPTOR ANTAGONISTS” (Merck Sharp & Dohme Corp., priority 2012, published 2015).
“And” between values parts separate entries of the source, which are not always exact repeats. Equal values may be shown once.

Legend:
[1] = system: Ae. Aegypti strains Houston, That and Isla Mujer; test: Spatial repellency on metabolically resistant mosquitoes (Example 6); format: in vivo
[2] = system: Ae. Aegypti, Isla Mujer strain (metabolically pyrethroid resistant); test: Contact irritancy on metabolically resistant mosquitoes (Example 5); format: in vivo
Description: (§1) Four compounds of formula (I) were tested for contact irritancy (i.e., movement away from the source after physical contact) at low doses on female Aedes aegypti (Thailand strain) mosquitoes. The contact irritant response was determined by use of the contact irritant assay disclosed by Grieco et al. in “A New Classification System for the Actions of IRS Chemicals Traditionally Used for Malaria Control,” Plos One, Issue 8 (2007) (available at www.plosone.org). The assay used was a cylindrical assembly that included a metal treatment end to which 10 mosquitoes were introduced and a clear receiving chamber. The treatment end included a netting strip (nylon organdy) that was treated with the insecticide of interest at the relevant dose. A butterfly valve separated the treatment end from the remainder of the assembly.
Each composition was applied to the netting strip at a varied dose via a 1.5 ml acetone solution. Four (4) treatment concentrations were used—0.0025 nmol/cm^2, 0.025 nmol/cm^2, 0.25 nmol/cm^2 and 2.5 nmol/cm^2. Netting was allowed to dry for 15 minutes prior to placement in the cylinder. Control assays were performed with netting treated with acetone only.
For each run, 10 mosquitoes were transferred into the treatment end of the assembly and, after 30 seconds, the butterfly valve was opened. The valve was closed after 10 minutes and the number of mosquitoes in the clear end (i.e., the number of escaped mosquitoes) was tested.
The contact irritancy protocol of Example 2 was used to determine contact irritancy against mosquitoes (Ae. Aegypti) that had acquired metabolic resistance against pyrethroids. Alphacypermethrin and transfluthrin were also tested. Three mosquito strains were tested—Houston which is pyrethroid susceptible, That which is pyrethroid tolerant and Isla Mujer which is metabolically pyrethroid resistant.

[3] = system: Ae. aegypti Isla mujeres strain (metabolically pyrethroid resistant); test: Toxicity assay on treated netting (Example 7), Isla mujeres strain; format: in vivo
In short: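 Twenty Ae. aegypti per chamber exposed to treated netting for 1 h, knockdown recorded, then held with 10% sucrose. Mortality scored at 24 h; acetone-treated netting as control, six replicates per treatment concentration.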

[4] = system: Ae. Aegypti, That strain (pyrethroid tolerant); test: Contact irritancy on pyrethroid tolerant mosquitoes (Example 5); format: in vivo
Susceptible An. Gambiae = test: Bottle toxicity assay (Example 8), susceptible mosquitoes; format: in vivo, Anopheles gambiae
Description: (§2) Several compounds were tested to determine their toxic effect on knockdown resistant Anopheles gambiae mosquitoes and susceptible mosquitoes. Acetone and different amounts of pesticides were added to 250 ml bottles. In one bottle, only acetone was added as a control. The bottles were rotated in all directions while uncapped until all acetone was evaporated and the insecticide was coated onto the inside surfaces of the bottle. A number of knockdown resistant Anopheles gambiae mosquitoes were added to the bottle. The number of dead mosquitoes was recorded at 1 hour and 24 hours.

KDR Resisant An. Gambiae = test: Bottle toxicity assay (Example 8), knockdown resistant mosquitoes; format: in vivo, Anopheles gambiae
Description: as §2

mosquitoes (Ae. aegypti) = test: Compound residual life: contact irritancy (Example 10); format: in vivo; conditions: for Number escaping (mean +/- SE), treated: 10 mosquitoes per run, 6 runs per net sample
Description: as §1
Contact irritancy tests (blind testing) were performed for several samples of compounds 1405 and 1406 at 0 weeks, 2 weeks, 4 weeks, 8 weeks and 12 weeks to determine the residual contact irritancy of the compounds on mosquitoes (Ae. aegypti). Between testing, the nets were hung in the lab and held at a temperature of 27-29° C. and 56-67% relative humidity. Each run was performed 6 times for each sample with 10 mosquitoes used in each run (60 mosquitoes total).

[5] = Dose 0.025 μg/bottle, Strain Tested F122, Time 1 hour
[6] = Dose 0.025 μg/bottle, Strain Tested F122, Time 24 hours
[7] = Dose 0.025 μg/bottle, Strain Tested F123, Time 1 hour
[8] = Dose 0.025 μg/bottle, Strain Tested F123, Time 24 hours
[9] = Dose 0.25 μg/bottle, Strain Tested F122, Time 1 hour
[10] = Dose 0.25 μg/bottle, Strain Tested F122, Time 24 hours
[11] = Dose 0.25 μg/bottle, Strain Tested F123, Time 1 hour
[12] = Dose 0.25 μg/bottle, Strain Tested F123, Time 24 hours
[13] = Dose 2.5 μg/bottle, Strain Tested F122, Time 1 hour
[14] = Dose 2.5 μg/bottle, Strain Tested F122, Time 24 hours
[15] = Dose 2.5 μg/bottle, Strain Tested F123, Time 1 hour
[16] = Dose 2.5 μg/bottle, Strain Tested F123, Time 24 hours

CC1(C)C(C=C(Cl)Cl)C1C(=O)OCc1ccc(F)c(C(F)(F)F)c1F (centres unmarked) [Compound 1406]
spatial repellency, all strains (FIG. 5) [1]: spatial repellants for all strains
contact irritancy, resistant strain (FIG. 4) [2]: effective in resistant strains
Isla mujeres (% dead (SE)) ([3]; Dose 0.00725 nm/cm^2, Time 1 hour): 0%
Isla mujeres (% dead (SE)) ([3]; Dose 0.00725 nm/cm^2, Time 24 hours): 7.77%
Isla mujeres (% dead (SE)) ([3]; Dose 0.025 nm/cm^2, Time 1 hour): 100%
Isla mujeres (% dead (SE)) ([3]; Dose 0.025 nm/cm^2, Time 24 hours): 42.77%
Isla mujeres (% dead (SE)) ([3]; Dose 0.0725 nm/cm^2, Time 1 hour): 96.29%
Isla mujeres (% dead (SE)) ([3]; Dose 0.0725 nm/cm^2, Time 24 hours): 25.37%
Isla mujeres (% dead (SE)) ([3]; Dose 0.125 nm/cm^2, Time 1 hour): 100%
Isla mujeres (% dead (SE)) ([3]; Dose 0.125 nm/cm^2, Time 24 hours): 100%
Isla mujeres (% dead (SE)) ([3]; Dose 0.25 nm/cm^2, Time 1 hour): 100%
Isla mujeres (% dead (SE)) ([3]; Dose 0.25 nm/cm^2, Time 24 hours): 100%
Isla mujeres (% dead (SE)) ([3]; Dose 2.5 nm/cm^2, Time 1 hour): 100%
Isla mujeres (% dead (SE)) ([3]; Dose 2.5 nm/cm^2, Time 24 hours): 100%
toxicity to resistant populations compared with standard compounds ([3]; summary of Table 2): more toxic to resistant populations than permethrin, matfluthrin and transfluthrin
contact irritancy, tolerant strain (FIG. 4) [4]: contact irritants for tolerant strains
Susceptible An. Gambiae (% dead (SE)) (Susceptible An. Gambiae; [5]): 100%
Susceptible An. Gambiae (% dead (SE)) (Susceptible An. Gambiae; [6]): 100%
Susceptible An. Gambiae (% dead (SE)) (Susceptible An. Gambiae; [7]): 100%
Susceptible An. Gambiae (% dead (SE)) (Susceptible An. Gambiae; [8]): 100%
Susceptible An. Gambiae (% dead (SE)) (Susceptible An. Gambiae; [9]): 100%
Susceptible An. Gambiae (% dead (SE)) (Susceptible An. Gambiae; [10]): 100%
Susceptible An. Gambiae (% dead (SE)) (Susceptible An. Gambiae; [11]): 100%
Susceptible An. Gambiae (% dead (SE)) (Susceptible An. Gambiae; [12]): 100%
Susceptible An. Gambiae (% dead (SE)) (Susceptible An. Gambiae; [13]): 100%
Susceptible An. Gambiae (% dead (SE)) (Susceptible An. Gambiae; [14]): 100%
Susceptible An. Gambiae (% dead (SE)) (Susceptible An. Gambiae; [15]): 100%
Susceptible An. Gambiae (% dead (SE)) (Susceptible An. Gambiae; [16]): 100%
KDR Resisant An. Gambiae (% dead (SE)) (KDR Resisant An. Gambiae; [5]): 100%
KDR Resisant An. Gambiae (% dead (SE)) (KDR Resisant An. Gambiae; [6]): 100%
KDR Resisant An. Gambiae (% dead (SE)) (KDR Resisant An. Gambiae; [7]): 100%
KDR Resisant An. Gambiae (% dead (SE)) (KDR Resisant An. Gambiae; [8]): 100%
KDR Resisant An. Gambiae (% dead (SE)) (KDR Resisant An. Gambiae; [9]): 100%
KDR Resisant An. Gambiae (% dead (SE)) (KDR Resisant An. Gambiae; [10]): 100%
KDR Resisant An. Gambiae (% dead (SE)) (KDR Resisant An. Gambiae; [11]): 100%
KDR Resisant An. Gambiae (% dead (SE)) (KDR Resisant An. Gambiae; [12]): 100%
KDR Resisant An. Gambiae (% dead (SE)) (KDR Resisant An. Gambiae; [13]): 100%
KDR Resisant An. Gambiae (% dead (SE)) (KDR Resisant An. Gambiae; [14]): 100%
KDR Resisant An. Gambiae (% dead (SE)) (KDR Resisant An. Gambiae; [15]): 100%
KDR Resisant An. Gambiae (% dead (SE)) (KDR Resisant An. Gambiae; [16]): 100%
effectiveness against knockdown resistant strains (KDR Resisant An. Gambiae; summary of Table 3): effective against knockdown resistant strains
residual contact irritant activity (in words) (mosquitoes (Ae. aegypti); 12 week test period, nets held at 27-29° C.): the most residual with the highest level of activity out to 12 weeks
Percent escaping (mean ± SE) (mosquitoes (Ae. aegypti); Time 0 week): 80 ± 2% and 87 ± 4% and 87 ± 7% and 87 ± 10%
Number escaping (mean +/- SE), treated (mosquitoes (Ae. aegypti); Time 0 week): 3.8 ± 0.5 and 3.2 ± 0.5 and 3.2 ± 1.2 and 4.0 ± 1.0
Percent escaping (mean ± SE) (mosquitoes (Ae. aegypti); Time 2 week): 57 ± 4% and 63 ± 5% and 58 ± 7% and 62 ± 8%
Number escaping (mean +/- SE), treated (mosquitoes (Ae. aegypti); Time 2 week): 2.5 ± 0.8 and 2.7 ± 0.3 and 2.2 ± 0.2
Percent escaping (mean ± SE) (mosquitoes (Ae. aegypti); Time 4 week): 50 ± 10% and 47 ± 4% and 45 ± 4% and 35 ± 8%
Number escaping (mean +/- SE), treated (mosquitoes (Ae. aegypti); Time 4 week): 2.0 ± 0.4 and 2.3 ± 0.5 and 2.5 ± 0.4 and 2.5 ± 0.8
Percent escaping (mean ± SE) (mosquitoes (Ae. aegypti); Time 8 week): 40 ± 10% and 37 ± 2% and 27 ± 7% and 28 ± 9%
Percent escaping (mean ± SE) (mosquitoes (Ae. aegypti); Time 12 week): 37 ± 4% and 31 ± 4% and 22 ± 6% and 19 ± 5%
